{"source": "patent US11447525B2", "about": "(NIIGATA UNIVERSITY, priority 2018, dated 2022)", "key": {"[1]": {"test_system": "scirrhous pancreatic cancer model mice (BxPC3, MIA-Paca2, AsPC1 or Capan-2 cells with hMSC)", "experiment": "Selective absorption of FAM-NmLL in tissues of scirrhous pancreatic cancer model mice (Test Example 7)", "type": "in vivo, NOD/SCID, KPC and KC mouse", "conditions": "200 μg into the caudal vein, 30 minutes after administration; all of the mouse models", "procedure": "FAM-NmLL was administered to pancreatic cancer model mice having scirrhous carcinoma, and the selective absorption of the FAM-NmLL in various tissues of the mouse was confirmed. A scirrhous pancreatic cancer model mouse having scirrhous carcinoma that forms abundant tumor-stroma interactions was produced in accordance with the method disclosed in the above Reference Document 1. Specifically, a 6-week old NOD/SCID mouse (CLEA Japan Inc., Japan), a Pdx1-Cre/KRAS^G12D (KC) mouse having a mutation in K-Ras, and a Pdx1-Cre/KRAS^G12D; p53^R172H (KPC) mouse having pancreatic cancer-specific mutations in K-Ras and p53 were raised under pathogen-free conditions. […]\nFAM-NmLL (200 μg) was injected into the caudal vein of each of the obtained scirrhous pancreatic cancer model mice. Subsequently, the pharmacokinetics of the peptide 30 minutes after administration were analyzed by tissue analysis of the freshly dissected specimen of the peptide-administered mouse. […]"}, "[2]": {"test_system": "pancreatic cancer cells (BxPC3, PK-8, MIA-Paca2)", "experiment": "Accumulation of FAM-labeled peptides in cells, inverted fluorescence microscope (Test Example 2)", "type": "cell-based, human", "conditions": "2 μM, 37° C., 2 hours", "procedure": "Tests were conducted to confirm the accumulation of each peptide in each of the cells shown below in Table 8. Further, among the peptides shown below in Table 9, the FAM-PCPP11 used in Test Example 1, the LL peptide in which the N-terminus had been FAM-labeled (FAM-LL), and the Ld peptide in which the N-terminus had been FAM-labeled (FAM-Ld) were used.\nEach of FAM-PCPP11, FAM-LL and FAM-Ld was added to each of the cells shown in Table 8 in an amount sufficient to achieve a final concentration in the medium of 2 μM, and following cultivation of the cells at 37° C. for 2 hours, the sample was washed 3 times with a medium containing no peptide to remove any peptide within the medium. Subsequently, the incorporation of each of the peptides into each of the cells was evaluated visually using an inverted fluorescence microscope. Prior to the microscopic examination, the culture supernatant to which the peptide had been added was removed, and following washing three times with 1×PBS (−), a trypsin treatment was conducted to remove the adherent cells, and the resultant was immediately transferred into a new 96-well plate and once again suspended in fresh culture solution before the microscopic examination was performed. In FIG. 8A, “L” indicates the cells to which FAM-PCPP11 was added, “LL” indicates the cells to which FAM-LL was added, and “Ld” indicates the cells to which FAM-Ld was added. Further, the fluorescent images in the BxPC3 cells indicate a representative example of pancreatic cancer cells.\nFurthermore, FIG. 8B is a graph quantifying the fluorescence detected in each of the above cells in FIG. 8A, with the fluorescence intensity detected in each cell shown relative to a value of 1.0 for the fluorescence detected in the H2110 cells, which is a cell line derived from an adenocarcinoma in a human non-small-cell lung cancer system, to which each of the FAM-PCPP11 and FAM-LL peptides had been added.\nFurther, each of FAM-PCPP11, FAM-LL and FAM-NmLL was added to each of the cells shown in Table 8 in an amount sufficient to achieve a final concentration in the medium of 2 μM, and following cultivation of the cells at 37° C. for 2 hours, the sample was washed 3 times with a medium containing no peptide to remove any peptide within the medium. Subsequently, the incorporation of each of the peptides into each of the cells was evaluated visually using an inverted fluorescence microscope. […]"}}, "note": "Non-standard residues stand in square brackets, D forms with d. Residues, ends and D or L forms follow the SMILES beside them. *: point of attachment. 5FAM = O=C1OC2(c3ccc(O)cc3Oc3cc(O)ccc32)c2ccc(C(=O)*)cc21; NMeR = CN[C@@H](CCCNC(=N)N)C(=O)O"}
{"smiles": "C[C@@H](O)[C@H](NC(=O)[C@@H](NC(=O)[C@@H]1CCCN1C(=O)[C@H](CCCNC(=N)N)NC(=O)[C@H](CCCNC(=N)N)NC(=O)CNC(=O)[C@@H]1CCCN1C(=O)[C@H](CCCCN)NC(=O)[C@H](Cc1c[nH]cn1)NC(=O)[C@H](Cc1c[nH]c2ccccc12)NC(=O)[C@@H](NC(=O)[C@@H](NC(=O)[C@@H]1CCCN1C(=O)[C@H](CCCNC(=N)N)N(C)C(=O)[C@H](CCCNC(=N)N)NC(=O)c1ccc2c(c1)C(=O)OC21c2ccc(O)cc2Oc2cc(O)ccc21)[C@@H](C)O)[C@@H](C)O)[C@@H](C)O)C(=O)N[C@@H](Cc1c[nH]c2ccccc12)C(=O)N[C@@H](Cc1c[nH]cn1)C(=O)N[C@@H](CCCCN)C(=O)N1CCC[C@H]1C(=O)O", "note": "[FAM-NmLL] (5FAM-R[NMeR]PTTWHKPGRRPTTWHKP-OH; C-terminus assumed)", "values": [{"measurement": "absorption into the cancer cell nests inside the tumor tissues", "setting": "[1]", "value": "strong absorption"}, {"measurement": "absorption into the tumor tissues (main lesions and metastatic lesions)", "setting": "[1]", "value": "strong absorption"}, {"measurement": "fluorescence compared with the sample containing FAM-PCPP11", "setting": "[2]", "value": "stronger fluorescence"}]}
